Data reported in ChEMBL document CHEMBL5252612, “A novel selective estrogen receptor degrader induces cell cycle arrest in breast cancer via ERα degradation and the autophagy-lysosome pathway” (Bioorg Med Chem, 2023).
The source made the active and inactive calls. The rule behind the calls is not given here.

Assays:
MCF7 [1] = test: Anticancer activity against ER-alpha positive human MCF7 cells assessed as reduction in cell viability measured after 48 hrs by CCK8 assay; type: functional, cell-based
MCF7 [2] = test: Inhibition of colony formation in human MCF7 cells at 1 to 10 uM incubated for 14 days by crystal violet staining based analysis; type: functional, cell-based; settings: dose 1-10 µM, time 14.0 day
T47D [3] = test: Induction of cell cycle arrest in human T47D cells assessed as proportion of cells at G2 phase at 1 uM incubated for 24 hrs by flow cytometry (reference value: 24.4%); type: functional
T47D [4] = test: Induction of cell cycle arrest in human T47D cells assessed as proportion of cells at S phase at 5 uM incubated for 24 hrs by flow cytometry (reference value: 15.3%); type: functional
MCF7 [5] = test: Induction of cell cycle arrest in human MCF7 cells assessed as proportion of cells at G2 phase at 1 uM incubated for 24 hrs by flow cytometry (reference value: 25.5%); type: functional
MCF7 [6] = test: Induction of cell cycle arrest in human MCF7 cells assessed as proportion of cells at G2 phase at 5 uM incubated for 24 hrs by flow cytometry (reference value: 25.5%); type: functional
MCF7 [7] = test: Induction of apoptosis and necrosis in human MCF7 cells assessed as live cells at 10 uM incubated for 48 hrs by AnnexinV-FITC/PI staining based flow cytometry (reference value: 92.97%); type: functional
MCF7 [8] = test: Induction of apoptosis and necrosis in human MCF7 cells incubated for 48 hrs by AnnexinV-FITC/PI staining based flow cytometry (reference value: 7.03%); type: functional
T47D [9] = test: Induction of apoptosis in human T47D cells at 10 uM incubated for 48 hrs by TUNEL assay; type: functional, cell-based
[10] = target: T1, Estrogen receptor (Homo sapiens) (UniProt P03372); test: Induction of ER-alpha degradation in human T47D cells assessed as reduction in ER-alpha stability at 10 uM incubated for 3 to 9 hrs in presence of protein synthesis inhibitor, CHX by CHX chase assay based western blot analysis; type: cell-based; settings: time 3-9 hrs
T1 sequence (whole entry): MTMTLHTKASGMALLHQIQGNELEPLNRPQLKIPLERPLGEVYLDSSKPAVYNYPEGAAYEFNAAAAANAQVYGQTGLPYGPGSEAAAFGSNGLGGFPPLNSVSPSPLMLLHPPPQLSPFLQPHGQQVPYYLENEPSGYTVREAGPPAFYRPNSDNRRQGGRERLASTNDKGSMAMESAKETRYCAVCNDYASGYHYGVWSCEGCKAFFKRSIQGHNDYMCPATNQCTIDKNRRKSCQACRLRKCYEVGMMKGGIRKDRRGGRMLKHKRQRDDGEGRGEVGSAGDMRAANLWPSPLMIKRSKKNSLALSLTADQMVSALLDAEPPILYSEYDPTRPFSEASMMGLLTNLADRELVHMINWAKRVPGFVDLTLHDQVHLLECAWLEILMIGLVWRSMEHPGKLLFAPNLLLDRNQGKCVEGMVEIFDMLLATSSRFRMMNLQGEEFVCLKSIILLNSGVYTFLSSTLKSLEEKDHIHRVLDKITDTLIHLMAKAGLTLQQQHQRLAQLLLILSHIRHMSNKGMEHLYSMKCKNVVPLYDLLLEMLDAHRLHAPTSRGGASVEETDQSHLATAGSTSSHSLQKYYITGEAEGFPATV

T47D [11] = test: Induction of autophagy in human T47D cells assessed as increase in LC3 protein expression at 5 to 10 uM incubated for 24 hrs by western blot analysis; type: functional, cell-based; settings: dose 5-10 µM
T47D [12] = test: Induction of autophagy in human T47D cells assessed as increase in LC3 puncta formation at 1 to 10 uM incubated for 24 hrs by immunofluorescence assay; type: functional, cell-based; settings: dose 1-10 µM
T47D [13] = test: Induction of autophagic flux in human T47D cells transfected with mCherry-EGFP-LC3 assessed as increase in red fluorescence at 1 to 10 uM incubated for 24 hrs by confocal microscopic analysis; type: functional, cell-based; settings: dose 1-10 µM
T47D [14] = test: Induction of cell cycle arrest in human T47D cells assessed as proportion of cells at S phase at 10 uM incubated for 24 hrs by flow cytometry (reference value: 27.7%); type: functional
T47D [15] = test: Induction of cell cycle arrest in human T47D cells assessed as proportion of cells at S phase at 10 uM incubated for 24 hrs in presence of autophagy inhibitor, 3-MA by flow cytometry (reference value: 21.4%); type: functional
T47D [16] = test: Induction of autophagy in human T47D cells assessed as upregulation of MAP1LC3B expression at 10 uM incubated for 12 hrs by RNA-seq analysis; type: functional, cell-based
[17] = target: T1, Estrogen receptor (Homo sapiens); test: Induction of ER-alpha degradation in human T47D cells assessed as decrease in MYC protein expression at 10 uM incubated for 24 hrs by western blot analysis; type: cell-based
T47D [18] = test: Induction of cell cycle arrest in human T47D cells overexpressing MYC assessed as proportion of cells at S phase at 10 uM incubated for 24 hrs by flow cytometry (reference value: 24.2%); type: functional
T47D [19] = test: Induction of cell cycle arrest in human T47D cells overexpressing MYC assessed as proportion of cells at G2 phase at 10 uM incubated for 24 hrs by flow cytometry (reference value: 48.5%); type: functional
[20] = Anticancer activity against ER-alpha positive human LCC2 cells assessed as reduction in cell viability measured after 48 hrs by CCK8 assay; type: functional, cell-based; settings: Homo sapiens, LCC2, 48 h; read-out: IC50
[21] = target: T1, Estrogen receptor (Homo sapiens); test: Induction of ER-alpha degradation in tamoxifen-resistant human LCC2 cells assessed as decrease in ER-alpha protein expression at 10 uM by western blot analysis; type: cell-based
[22] = Induction of cell cycle arrest in tamoxifen-resistant human LCC2 cells assessed as proportion of cells at G2 phase at 1 uM by flow cytometry (reference value: 23.7%); type: functional
[23] = Induction of cell cycle arrest in tamoxifen-resistant human LCC2 cells assessed as proportion of cells at G1 phase at 5 uM by flow cytometry (reference value: 47.4%); type: functional
[24] = Induction of cell cycle arrest in tamoxifen-resistant human LCC2 cells assessed as proportion of cells at G2 phase at 5 uM by flow cytometry (reference value: 23.7%); type: functional
[25] = Induction of cell cycle arrest in tamoxifen-resistant human LCC2 cells assessed as proportion of cells at G1 phase at 10 uM by flow cytometry (reference value: 47.4%); type: functional
[26] = Induction of cell cycle arrest in tamoxifen-resistant human LCC2 cells assessed as proportion of cells at S phase at 10 uM by flow cytometry (reference value: 28.4%); type: functional
[27] = Induction of cell cycle arrest in tamoxifen-resistant human LCC2 cells assessed as proportion of cells at G2 phase at 10 uM by flow cytometry (reference value: 23.7%); type: functional
[28] = target: T1, Estrogen receptor (Homo sapiens); test: Induction of ER-alpha degradation in human T47D cells assessed as decrease in ER-alpha protein expression in presence of autophagy inhibitor, 3-MA of by western blot analysis; type: cell-based
[29] = target: T1, Estrogen receptor (Homo sapiens); test: Induction of ER-alpha degradation in human T47D cells assessed as decrease in ER-alpha protein expression in presence of autophagy inhibitor, CQ by western blot analysis; type: cell-based

COc1ccc(N(CC(F)(F)F)S(=O)(=O)C2CC3OC2C(c2ccc(OCCN4CCCC4)cc2)=C3c2ccc(O)cc2)cc1 (stereo not given)
Activity (MCF7 [1]): Dose-Dependent Effect | IC50 (MCF7 [1]; MCF7, 48 h): 16.4 µM | inhibition (MCF7 [2]): Active | Activity (T47D [3]): 23.3% | Activity (T47D [4]): 9.6% | Activity (MCF7 [5]): 18.5% | Activity (MCF7 [6]): 16.5% | Activity (MCF7 [7]): 83.71% | Activity (MCF7 [8]): 46.45% | Activity (T47D [9]): Active | Activity [10]: Active | Activity (T47D [11]): Active | Activity (T47D [12]): Active | Activity (T47D [13]): Active | Activity (T47D [14]): 10.2% | Activity (T47D [15]): 14.5% | Activity (T47D [16]): Active | Activity [17]: Active | Activity (T47D [18]): 22.6% | Activity (T47D [19]): 52.5% | IC50 [20]: 10.5 µM | Activity [21]: Active | Activity [22]: 16.6% | Activity [23]: 71.9% | Activity [24]: 14.5% | Activity [25]: 71.6% | Activity [26]: 13.4% | Activity [27]: 13% | Activity [28]: Active | Activity [29]: Active
